Test results: patent US20190125735A1, “INHIBITION OF P38 MAPK FOR THE TREATMENT OF CANCER” (Board of Regents, The University of Texas System, priority 2015, published 2019)
“Also recorded” adds a separate entry of the source.

Key:
MCF10A cells = assay: TGFβ1-induced EMT in MCF10A cells, immunoblotting; type: cell-based, human; settings: TGFβ1-treated MCF10A, concomitant SB203580, 3 days
Method: To ascertain whether inhibiting p38 impedes the initiation of EMT, two dynamic models of EMT induction were utilized. First, MCF10A immortalized human mammary epithelial cells were treated with TGFβ1 which elicits EMT. […] Second, an inducible EMT system was used wherein a fusion protein, comprising the EMT-inducing transcription factors Snail or Twist and the estrogen-binding domain of the estrogen receptor (ER), is stably expressed in epithelial HMLE cells (HMLE-Snail-ER, HMLE-Twist-ER). Addition of the ER-ligand tamoxifen (4-OHT) promotes nuclear translocation of the Snail-ER and Twist-ER proteins and elicits EMT. […] Similarly, p38 shRNA abolished the capacity of HMLE-Twist-ER cells to undergo EMT (FIG. 4E, compare lanes 4 to 8) and to form spheres (FIG. 16F) in response to 4-OHT treatment.
Immortalized human mammary epithelial (HMLE) cells expressing empty vector (pWZL), Snail, Twist, Goosecoid (GSC), or an activated form of TGFβ1, V12H-Ras-transformed HMLE (HMLER) and HMLER-FOXC2 cells were maintained as previously described (Elenbaas et al., 2001) For 4-hydroxy-tamoxifen (4-OHT) treatment, HMLE-Snail-ER or HMLE-Twist-ER cells were exposed to 20 nM 4-OHT for the indicated number of days. MCF7, MDA-MB-231 and SUM159 human breast cancer cells and the 4T1 mouse mammary carcinoma cells were cultured as described. […]

DU145 cells [1] = assay: Tumorsphere assay, DU145 cells; type: cell-based, human; settings: DU145, SB203580 5 μM, 7 days
Method: Cell lines: Authenticated LNCaP, DU145, and PC3 cells were procured from ATCC and cultured in RPMI with 10% fetal bovine serum (FBS) with penicillin/streptomycin. Cells overexpressing EMT transcription factors and shRNA were also cultured in the same media. HEK293T cells were cultured in DMEM with 10% FBS and penicillin/streptomycin. All cell lines used for this study were recently confirmed negative for mycoplasma contamination.
(§1) Immunoblotting, Immunofluorescence, RTPCR, wound healing- and tumorsphere assays were performed as previously described (Sarkar et al., 2015). Cell viability (MTS) was assessed using the CellTiter96 Aqueous One-Solution Cell Proliferation Assay kit (Promega).

FOXC2 = FOXC2 protein levels by immunoblotting in mammary cell lines; type: cell-based, human; settings: series of cell lines, relative to vehicle, 24 h
Method: Immortalized human mammary epithelial (HMLE) cells expressing empty vector (pWZL), Snail, Twist, Goosecoid (GSC), or an activated form of TGFβ1, V12H-Ras-transformed HMLE (HMLER) and HMLER-FOXC2 cells were maintained as previously described (Elenbaas et al., 2001) For 4-hydroxy-tamoxifen (4-OHT) treatment, HMLE-Snail-ER or HMLE-Twist-ER cells were exposed to 20 nM 4-OHT for the indicated number of days. MCF7, MDA-MB-231 and SUM159 human breast cancer cells and the 4T1 mouse mammary carcinoma cells were cultured as described. Human non-tumorigenic MCF10A cells were cultured as described (Hollier et al., 2013), and treated with 2.5 ng/ml TGFβ1 for 3 days to elicit EMT.
Immunoblotting and immunofluorescence (Mani et al., 2008) were performed as previously described. Primary antibodies were as follows: β-actin (Sigma, St Louis, Mo., USA; A3853), mouse anti-human FOXC2 (Dr. Naoyuki Miura, Hamamatsu University School of Medicine, Japan), goat polyclonal anti-FOXC2 (Santa Cruz Biotechnology, Dallas, Tex., USA; sc-21397), p-p38 (Cell Signaling, Danvers, Mass., USA; 4511), p38 (Cell Signaling; 9211), E-cadherin (BD Biosciences, San Jose, Calif., USA; 61081), fibronectin (BD Biosciences; 610077), vimentin (Novus Biologicals, Littleton, Colo., USA; NB200-623), ZEB1 (Novus Biologicals; NBP1-05987), and HA (Covance, Princeton, N.J., USA; MMS-101P).

DU145 cells [2] = assay: MTS cell survival assay, DU145 cells; type: cell-based, human
Method: as §1

[3] = tested on: HMLE-Snail, HMLE-Twist, MDA-MB-231 and SUM159 cells; assay: FACS CD44high/CD24low of mesenchymal mammary cells; type: cell-based, human; settings: relative to vehicle-treated cells
Method: It was next ascertained whether p38 inhibition compromises the maintenance of the established EMT phenotype.
Quantification of invadopodia (Eckert et al., 2011), scratch/wound-healing assays (Sarkar et al., 2015) fluorescence-activated cell sorting (FACS), and sphere-formation assays (Mani et al., 2008) were conducted as described previously.

HMLE cells = assay: FOXC2 immunostaining at leading edge of scratched HMLE monolayer; type: cell-based, human; settings: 9 h post-wound
Method: FIGS. 13A-13F: FOXC2 expression correlates with p38 activation in cells with mesenchymal and stem cell properties. […] (B) Cell lysates from the indicated cells were analyzed by immunoblotting for p-p38, p38 and FOXC2. β-actin was used as a loading control. […] Cell lysates were analyzed by immunoblotting for FOXC2. β-actin was used as a loading control (D) The indicated cells were transduced with p38 shRNA (shp38) or control shRNA (shControl). Cell lysates were analyzed by immunoblotting for p38 and FOXC2. β-actin was used as a loading control. […] (F) For the wound healing assay, a confluent monolayer culture of epithelial HMLE cells was scratched with a sterile pipette tip. […] Nuclei were counterstained with DAPI. Scale bar, 20 μm.

[4] = tested on: BCR-ABL+ mouse ALL cells seeded on MSCs (OP9 cells); assay: Clinical compound library screen, imatinib-pretreated MSC / BCR-ABL+ ALL cell co-culture; type: cell-based
Method: The effectiveness of the compounds was determined in preventing cluster formation by microscopy and the toxicity of the compounds by bioluminescence imaging of co-cultured MSCs and leukemic cells.
The clinical compounds library was purchased from the John S. Dunn Gulf Coast Consortium for Chemical Genomics (Houston, Tex.). […] Then, luciferase-labeled BCR-ABL+ mouse ALL cells were seeded on to the MSCs. Treatment was continued for 1 day, and the samples were evaluated via phase-contrast microscopy for the formation of leukemic cell clusters underneath the pretreated MSCs. To determine the compounds' toxicity in MSCs or leukemic cells, we examined the MSC/ALL cell co-cultures via microscopy and/or bioluminescence imaging.
Phase-contrast images of co-cultured MSCs and ALL cells were obtained using an Axio Observer.Z1 microscope, an AxioCam MR camera, and AxioVision software (Zeiss, Oberkochen, Germany). For screening, a cluster was defined as a group of more than five leukemic cells under the MSCs. The total number of leukemic cell clusters was the average number of clusters from three different fields (10× objective). For post-screening experiments, a cluster was defined as a group of more than 10 leukemic cells under the MSCs. The total number of leukemic cell clusters was the average number of clusters from 10 different fields (10× objective).

`C[S+]([O-])c1ccc(-c2nc(-c3ccc(F)cc3)c(-c3ccncc3)[nH]2)cc1` (centres unmarked) [SB203580, 4-(4-Fluorophenyl)-2-(4-methylsulfinylphenyl)-5-(4-pyridyl) 1H-imidazole] was tested, and the “FOXC2, mesenchymal and epithelial markers” value (MCF10A cells) was “suppresses the upregulation of FOXC2 and mesenchymal markers (fibronectin, vimentin) and prevents downregulation of the epithelial marker E-cadherin”, the Tumorsphere formation (DU145 cells [1]) was “significant reduction” and the FOXC2 protein levels (FOXC2) was “consistent and striking decrease in FOXC2 protein levels”. The “Sensitivity of cells to Docetaxel (cell survival)” value (DU145 cells [2]; DU145, SB203580 pre-treatment then co-treatment with SB203580 and Docetaxel) was “significantly resensitized”, the “Sensitivity of cells to Enzalutamide (cell survival)” value (DU145 cells [2]; DU145, SB203580 pre-treatment then co-treatment with SB203580 and Enzalutamide) was “significantly resensitized” and the “Percentage of cells displaying the CD44^high/CD24^low antigenic profile” value [3] was “substantially reduced”. The “Upregulation of FOXC2 at the leading edge of scratch” value (HMLE cells) was “abrogated the upregulation of FOXC2 at the leading edge” and the “Imatinib-induced leukemic cell cluster formation” value [4] was “directly prevented imatinib-induced leukemic cell cluster formation; also recorded: potently inhibited the formation of imatinib-induced leukemic cell clusters”.
